# Assay: Encapsulation efficiency by 1H NMR analysis of nanoparticles
# Assay type: physicochemical
# Conditions: DMF internal standard, DMSO-d6, agent within the nanoparticle delivery system
# Method: For the ^1H NMR analysis, the nanoparticle suspension was centrifuged at 3214 rcf for 30 min. The supernatant was decanted. DMF was added to the precipitate as the internal reference for ^1H NMR analysis and weighed the amount added. DMSO-d6, was added and heated to 60° C. to dissolve the sample. The ^1H NMR was performed at 60° C.
row,SMILES,encapsulation efficiency [%]
1,CCCCCCCC/C=C\CCCCCCCC(=O)O [oleic acid],19
2,"CCC(=O)OC/C=C(C)/C=C/C=C(C)/C=C/C1=C(C)CCCC1(C)C [vitamin A-propionate, retinyl propionate]",42.7

# — patent US20230017661A1, “COMPOSITIONS AND MODULAR NANO- AND MICROPARTICLES FOR THE DELIVERY OF VARIOUS AGENTS AND USE THEREOF” (Veri Nano Inc., priority 2019, published 2023)
